According to ChEMBL document CHEMBL1156238, “Allosteric inhibitors of hepatitis C virus NS5B polymerase thumb domain site II: structure-based design and synthesis of new templates” (Bioorg Med Chem, 2010):
Activity calls are given as the source filed them. The calls are words filed in the database; no cut-off is given here.

What was measured:
[1] = Cytotoxicity against human HBI10A cells; type: cell-based
Hepatitis C virus [2] = test: Inhibition of HCV genotype 1b NS5B polymerase deltaC21 mutant; type: functional, Hepatitis C virus subtype 1b
[3] = Selectivity index, ratio of CC50 for human HBI10A cells to EC50 for Hepatitis C virus; type: toxicity, cell-based; conditions: read-out: Ratio CC50/EC50
Hepatitis C virus [4] = test: Inhibition of HCV genotype 1b NS5B polymerase deltaC21 M423K mutant; type: functional, Hepatitis C virus subtype 1b
Hepatitis C virus [5] = test: Antiviral activity against Hepatitis C virus H2B2; type: functional, organism-based, Hepacivirus hominis
Hepatitis C virus [6] = test: Antiviral activity against HCV infected in human HBI10A cells; type: functional, organism-based, Hepacivirus hominis
[7] = Inhibition of HCV genotype 2b NS5B polymerase deltaC21 mutant; design: species or system Hepatitis C virus subtype 2b
Hepatitis C virus [8] = test: Inhibition of HCV genotype 1b NS5B polymerase deltaC21 M423K mutant at 2 uM; type: functional; conditions: Hepatitis C virus subtype 1b
Hepatitis C virus [9] = test: Antiviral activity against Hepatitis C virus at 20 uM; conditions: Hepacivirus hominis
Hepatitis C virus [10] = test: Inhibition of HCV genotype 1b NS5B polymerase deltaC21 M423K mutant at 50 uM; type: functional; conditions: Hepatitis C virus subtype 1b
Hepatitis C virus [11] = test: Inhibition of HCV genotype 1b NS5B polymerase deltaC21 mutant at 50 uM; type: functional; conditions: Hepatitis C virus subtype 1b
[12] = Cytotoxicity against human HBI10A cells at 20 uM; type: cell-based
[13] = Hepatitis C virus, H2B2, read-out: EC50

Row | Structure (SMILES) | CC50 ([1]; HBI10A cells, read-out: CC50) | IC50 (Hepatitis C virus [2]; read-out: IC50) | selectivity ratio [3] | EC50 (Hepatitis C virus [5]; [13]) | EC50 (Hepatitis C virus [6]) | IC50 [7] | further results
1 | CC[n+]1c(-c2ccccc2)c2cc(N)ccc2c2ccc(N)cc21 [HOMIDIUM BROMIDE] | 0.7 µM | 0.81 µM | 0.85 |  |  |  | IC50 (Hepatitis C virus [4]): 3.8 µM
2 | CC(C)CNc1ccc2c(=O)n(-c3cccc(Cl)c3)c(=O)n(C)c2c1 | > 100 µM | 3 µM | > 4 | > 100 µM | 24 µM | 5 µM | 
3 | O=c1c2ccc(NC3CCN(Cc4ccccc4)CC3)c3c2n(c(=O)n1-c1cccc(Cl)c1)CCC3 | 10 µM | 0.008 µM | 5.9 | 4.9 µM | 1.7 µM | 0.14 µM | 
4 | O=c1c2ccc(N[C@H]3CC[C@@H](C(=O)O)CC3)c3c2n(c(=O)n1-c1cccc(Cl)c1)CCC3 | > 100 µM | 1.1 µM | > 7.8 | 17 µM | 13 µM | 0.49 µM | 
5 | O=C1c2cccc3c(NCCO)ccc(c23)C(=O)N1c1cccc(Br)c1 | 68 µM | 0.02 µM |  | 18 µM |  | 0.18 µM | inhibition (Hepatitis C virus [8]): inactive
6 | Cn1c(=O)n(-c2cccc(Cl)c2)c(=O)c2ccc(NC3CCN(Cc4ccccc4)CC3)cc21 | 9.9 µM | 0.075 µM | 0.9 | > 25 µM | 11 µM | 1.3 µM | 
7 | O=C1c2cccc3c(NC4CCN(Cc5ccccc5)CC4)ccc(c23)C(=O)N1c1cccc(Br)c1 | 5.2 µM | < 0.014 µM | 2.4 | 1.7 µM | 2.2 µM | 0.043 µM | 
8 | Cn1c(=O)n(-c2cccc(Cl)c2)c(=O)c2ccc(NCCO)cc21 | > 100 µM | 2 µM |  | > 100 µM | 40 µM | 8.2 µM | 
9 | O=C(NCCO)c1cccc2c(=O)n(-c3cccc(Cl)c3)c(=O)[nH]c12 |  | > 10 µM |  |  | < 100 µM | > 10 µM | CC50 ([1]; hbi10a): Not Active; EC50 (Hepatitis C virus [5]): Not Active
10 | O=c1c2ccc(NC3CCN(Cc4ccccc4)CC3)cc2n2ccnc2n1-c1cccc(Cl)c1 | 3.2 µM | 0.84 µM | 0.9 | 2.6 µM | 3.7 µM | > 5 µM | 
11 | Cc1c(NCCO)ccc2c(=O)n(-c3cccc(Cl)c3)c(=O)n(C)c12 | > 100 µM | 2.4 µM | > 2.5 | > 100 µM | 40 µM | 5.3 µM | 
12 | O=C(O)c1cc(Cl)cc(-n2c(=O)c3ccc(NC4CCN(Cc5ccccc5)CC4)c4c3n(c2=O)CCC4)c1 | 42 µM | 0.16 µM | 10 | 20 µM | 4.1 µM | 0.72 µM | 
13 | O=c1c2ccc(NCCO)c3c2n(c(=O)n1-c1cccc(Cl)c1)CCC3 | 12 µM | 0.2 µM | 0.8 | 26 µM | 15 µM | 0.67 µM | 
14 | O=c1c2cccc3c2n(c(=O)n1-c1cccc(Cl)c1)CCN3CCCO |  | 5.2 µM |  | > 100 µM | < 100 µM | 7.7 µM | CC50 ([1]; hbi10a): Not Active
15 | Cc1c(NC2CCN(Cc3ccccc3)CC2)ccc2c(=O)n(-c3cccc(Cl)c3)c3nncn3c12 | 9 µM | 6.6 µM | 3 | < 100 µM | 3 µM | 0.4 µM | 
16 | O=C(NC1CCN(Cc2ccccc2)CC1)c1cccc2c(=O)n(-c3cccc(Cl)c3)c(=O)[nH]c12 | 7 µM | 0.076 µM | 1.8 | 6.6 µM | 4 µM | 0.73 µM | 
17 | COc1cccc2c1C(=O)c1c(O)c3c(c(O)c1C2=O)C[C@@](O)(C(=O)CO)C[C@@H]3O[C@H]1C[C@H](N)[C@H](O)[C@H](C)O1 [DOXORUBICIN] | < 0.3 µM |  | < 1 |  |  |  | IC50 (Hepatitis C virus [2]): 2.6 µM; IC50 (Hepatitis C virus [4]): 12 µM
18 | C=C[C@H]1CN2CC[C@H]1C[C@H]2[C@H](O)c1ccnc2ccc(OC)cc12 |  |  |  |  |  |  | inhibition (Hepatitis C virus [9]): inactive; inhibition (Hepatitis C virus [10]): inactive; inhibition (Hepatitis C virus [11]): inactive
19 | O=C(O)c1cccc(CN2CCn3c(=O)n(-c4cccc(Cl)c4)c(=O)c4cccc2c43)c1 | > 100 µM | 0.13 µM | > 3.7 | > 100 µM | 27 µM | 2 µM | 
20 | O=C1c2cccc3c(NCCO)ccc(c23)C(=O)N1c1cccc(Cl)c1 | 57 µM | 0.039 µM | 6.8 | 35 µM | 8.4 µM | 0.21 µM | 
21 | Cc1c(NCCO)ccc2c(=O)n(-c3cccc(Cl)c3)c3nncn3c12 |  | 0.38 µM |  |  | 14 µM | 5.3 µM | CC50 ([1]; hbi10a): Not Active; EC50 (Hepatitis C virus [5]): Not Active
22 | O=c1[nH]c2cc(NCCO)ccc2c(=O)n1-c1cccc(Cl)c1 | > 100 µM | 5.5 µM |  | > 100 µM | > 100 µM | > 50 µM | 
23 | CC1CCC(Nc2ccc3c(=O)n(-c4cccc(Cl)c4)c(=O)n(C)c3c2)CC1 (stereo unspecified) | 36 µM | 5.2 µM | 1.6 | 16 µM | 22 µM | 2.3 µM | 
24 | C=C[C@H]1C[N@@]2CC[C@H]1C[C@H]2[C@H](O)c1ccnc2ccc(OC)cc12 [QUININE] |  |  |  |  |  |  | inhibition (INH) [12]: Not Active
25 | O=c1c2ccc(NCCO)cc2n2ccnc2n1-c1cccc(Cl)c1 |  | > 10 µM |  |  | > 100 µM | > 10 µM | CC50 ([1]; hbi10a): Not Active; EC50 (Hepatitis C virus [5]): Not Active
